Results from US10294202B2, “Pyrrolidinones as herbicides” (FMC Corporation, priority 2013, dated 2019).

Experiments:
pigweed = test: Test A pre-/postemergence herbicide test; assay type: in vivo, Amaranthus retroflexus
Method in brief: (§1)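 Both application timings used compounds in a non-phytotoxic solvent plus surfactant. Pre-emergence: soil sprayed directly after seeding into loam/sand. Post-emergence: foliage of 2–10 cm seedlings (1–2 leaves) sprayed. Injury rated ~10 days later, 0–100.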

wheat = test: Test A pre-/postemergence herbicide test; assay type: in vivo, Triticum aestivum
Method in brief: as §1

velvetleaf = test: Test A pre-/postemergence herbicide test; assay type: in vivo, Abutilon theophrasti
Method in brief: as §1

crabgrass, large = test: Test A pre-/postemergence herbicide test; assay type: in vivo, Digitaria sanguinalis
Method in brief: as §1

morningglory = test: Test A pre-/postemergence herbicide test; assay type: in vivo, Ipomoea spp.
Method in brief: as §1

corn = test: Test A pre-/postemergence herbicide test; assay type: in vivo, Zea mays
Method in brief: as §1

barnyardgrass [1] = test: Test A pre-/postemergence herbicide test; assay type: in vivo, Echinochloa crus-galli
Method in brief: as §1

giant foxtail = test: Test A pre-/postemergence herbicide test; assay type: in vivo, Setaria faberii
Method in brief: as §1

ducksalad = test: Test B flooded paddy test; assay type: in vivo, Heteranthera limosa; conditions: Flood, scale of 0 to 100 where 0 is no effect and 100 is complete control
Method in brief: (§2)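 First, plants reach the 2-leaf stage; next, pots are flooded to 3 cm and compound is delivered into the water; finally, after 13 to 15 greenhouse days at constant depth, injury is graded visually from 0 to 100 against controls.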

rice = test: Test B flooded paddy test; assay type: in vivo, Oryza sativa; conditions: Flood, scale of 0 to 100 where 0 is no effect and 100 is complete control
Method in brief: as §2

barnyardgrass [2] = test: Test B flooded paddy test; assay type: in vivo, Echinochloa crus-galli; conditions: Flood, scale of 0 to 100 where 0 is no effect and 100 is complete control
Method in brief: as §2

sedge, umbrella = test: Test B flooded paddy test; assay type: in vivo, Cyperus difformis; conditions: Flood, scale of 0 to 100 where 0 is no effect and 100 is complete control
Method in brief: as §2

[3] = Postemergence, 125 g ai/ha, 0 to 100 scale, 0 is no effect, 100 is complete control
[4] = Postemergence, 500 g ai/ha, 0 to 100 scale (0 no effect, 100 complete control)
[5] = Preemergence, 125 g ai/ha, 0 to 100 scale where 0 is no effect and 100 is complete control
[6] = preemergence, 500 g ai/ha, 0 to 100 scale, 0 is no effect and 100 is complete control
[7] = 125 g ai/ha, visual rating, 0 to 100 scale, 0 no effect, 100 complete control, approximately 10 days, preemergence

Structure (SMILES) | Plant response rating, Pigweed (pigweed; [3]) | Plant response rating, Pigweed (pigweed; [6]) | Plant response rating, Wheat (wheat; [3]) | Plant response rating, Wheat (wheat; [6]) | Plant response rating, Velvetleaf (velvetleaf; [3]) | Plant response rating, Velvetleaf (velvetleaf; [6]) | Plant response rating, Crabgrass, Large (crabgrass, large; [3]) | Plant response rating, Crabgrass, Large (crabgrass, large; [6]) | Plant response rating, Morningglory (morningglory; [3]) | Plant response rating, Morningglory (morningglory; [6]) | Plant response rating, Corn (corn; [3]) | Plant response rating, Corn (corn; [6]) | Plant response rating, Barnyardgrass (barnyardgrass [1]; [3]) | Plant response rating, Barnyardgrass (barnyardgrass [1]; [6]) | Plant response rating, Foxtail, Giant (giant foxtail; [3]) | Plant response rating, Foxtail, Giant (giant foxtail; [6]) | Plant response rating, Ducksalad (ducksalad; 250 g ai/ha) | Plant response rating, Rice (rice; 250 g ai/ha) | Plant response rating, Barnyardgrass (barnyardgrass [2]; 250 g ai/ha) | Plant response rating, Sedge, Umbrella (sedge, umbrella; 250 g ai/ha) | other results
O=C1NCC(c2ccc(OC(F)(F)F)cc2)C1C(=O)Nc1ccccc1F (racemic) [Compound 256] | 0 | 0 | 0 | 0 | 0 | 0 | 70 | 90 | 0 | 0 | 0 | 0 | 0 | 20 | 40 | 60 | 60 | 0 | 0 | 50 | Plant response rating, Pigweed (pigweed; [4]): 0; Plant response rating, Pigweed (pigweed; [5]): 0; Plant response rating, Wheat (wheat; [4]): 20; Plant response rating, Wheat (wheat; [5]): 0; Plant response rating, Velvetleaf (velvetleaf; [4]): 0; Plant response rating, Velvetleaf (velvetleaf; [5]): 0; Plant response rating, Crabgrass, Large (crabgrass, large; [4]): 90; Plant response rating, Crabgrass, Large (crabgrass, large; [5]): 80; Plant response rating, Morningglory (morningglory; [4]): 0; Plant response rating, Morningglory (morningglory; [5]): 0; Plant response rating, Corn (corn; [4]): 0; Plant response rating, Corn (corn; [5]): 0; Plant response rating, Barnyardgrass (barnyardgrass [1]; [4]): 20; Plant response rating, Barnyardgrass (barnyardgrass [1]; [5]): 0; Plant response rating, Foxtail, Giant (giant foxtail; [4]): 70; Plant response rating, Foxtail, Giant (giant foxtail; [5]): 20
COc1ccc(C2CNC(=O)C2C(=O)Nc2ccccc2C(F)(F)F)cc1F (racemic) [Compound 199] | 0 | 0 | 0 | 0 | 0 | 0 | 60 | 100 | 0 | 0 | 0 | 0 | 50 | 60 | 0 | 90 | 90 | 0 | 20 | 0 | Plant response rating, Pigweed (pigweed; [7]): 0; Pigweed plant response rating (0 to 100 scale, 0 is no effect, 100 is complete control) (pigweed; Postemergence, 500 g ai/ha): 0; Plant response rating, Wheat (wheat; [7]): 0; Wheat plant response rating (0 to 100 scale, 0 is no effect, 100 is complete control) (wheat; Postemergence, 500 g ai/ha): 0; Plant response rating, Velvetleaf (velvetleaf; [7]): 0; Velvetleaf plant response rating (0 to 100 scale, 0 is no effect, 100 is complete control) (velvetleaf; Postemergence, 500 g ai/ha): 40; Plant response rating, Crabgrass, Large (crabgrass, large; [7]): 90; Crabgrass, Large plant response rating (0 to 100 scale, 0 is no effect, 100 is complete control) (crabgrass, large; Postemergence, 500 g ai/ha): 80; Plant response rating, Morningglory (morningglory; [7]): 0; Morningglory plant response rating (0 to 100 scale, 0 is no effect, 100 is complete control) (morningglory; Postemergence, 500 g ai/ha): 0; Plant response rating, Corn (corn; [7]): 0; Corn plant response rating (0 to 100 scale, 0 is no effect, 100 is complete control) (corn; Postemergence, 500 g ai/ha): 0; Plant response rating, Barnyardgrass (barnyardgrass [1]; [7]): 0; Barnyardgrass plant response rating (0 to 100 scale, 0 is no effect, 100 is complete control) (barnyardgrass [1]; Postemergence, 500 g ai/ha): 70; Plant response rating, Foxtail, Giant (giant foxtail; [7]): 50; Foxtail, Giant plant response rating (0 to 100 scale, 0 is no effect, 100 is complete control) (giant foxtail; Postemergence, 500 g ai/ha): 50; Plant response rating, Ducksalad (ducksalad; 1000 g ai/ha): 80; Plant response rating, Rice (rice; 1000 g ai/ha): 0; Plant response rating, Barnyardgrass (barnyardgrass [2]; 1000 g ai/ha): 20; Plant response rating, Sedge, Umbrella (sedge, umbrella; 1000 g ai/ha): 0
